In patent US9468670B2, “Melatonin-based treatment and diagnosis of bile duct disease” (Texas A&M University System, priority 2011, dated 2016):

Columns and labels:
[1] = tested on: PER1, BMAL1, CRY1, CLOCK, MT1 and MT2; test: Expression of clock genes and MT1/MT2 in cholangiocytes from treated rats (real-time PCR, FACS); type: in vivo, rat
Description: Male 344 Fischer rats (150-175 g) were purchased from Charles River (Wilmington, Mass.) and kept in a temperature-controlled environment (22° C.) with 12:12 hr light/dark cycles. Animals were fed ad libitum and had free access to food and drinking water. […] Before each surgical procedure, animals were anesthetized with sodium pentobarbital (50 mg/kg BW, IP). All animal experiments were performed in accordance with a protocol approved by the Scott and White and Texas A&M Health Science Center Institutional Animal Care and Use Committee and conform to the Guide for the Care and Use of Laboratory Animals published by the US National Institutes of Health (NIH Publication No. 85-23, revised 1996). In all animals, wet liver weight, body weight, wet liver weight to body weight ratio, and an index of liver cell growth including cholangiocytes were measured ([…] et al., 1988). […] FACS analysis was performed as described (Onori et al., 2010) using a C6 flow cytometer and analyzed by CFlow Software (Accuri Cytometers Inc. Ann Arbor, Mich.). […] The relative quantity of the selected protein (mean selected protein fluorescence) was expressed as mean FL1-A (samples)/mean FL-1A (secondary antibodies only). […] Data were expressed as relative mRNA levels ±SEM of the selected gene to glyceraldehyde-3-phosphate dehydrogenase (GAPDH) ratio.

AANAT = test: Expression of AANAT in liver sections, cholangiocytes, pineal gland and small intestine (immunohistochemistry, real-time PCR); type: in vivo, rat
Description: Male Fischer 344 rats (150-175 gm) were purchased from Charles River Laboratories (Wilmington, Mass.) and housed at 22° C. with 12:12 hr light/dark cycles. The animals had free access to standard chow and drinking water. […] Animal experiments were performed in accordance with a protocol approved by the Scott & White and Texas A&M Health Science Center IACUC. In separate experiments, normal rats treated with Vivo-Morpholino sequences of AANAT (5'-[…] NO:1), to reduce the biliary expression of AANAT) or Morpholino mismatched (5'-[…] NO:2)) (Gene Tools LCC) (1 mg/Kg BW/day) for 1 week via an implanted portal vein catheter. Serum, liver tissue, cholangiocytes, kidney, spleen, small intestine, stomach and heart were collected. Since our goal was to knock-down AANAT expression in the liver without inhibiting AANAT expression in other organs, we used a lower dose (1 mg/Kg/day) of Vivo-Morpholino than that described in the original study (3.0 mg/kg/day (Arora et al., 2002). This approach minimizes the amount of Vivo-Morpholino that circulates outside of the liver after slow infusion into the portal vein. See below for the surgical procedure for the implantation of the portal vein catheter by which AANAT Vivo-Morpholino or Morpholino mismatched was administered. The following was evaluated: (i) the expression of AANAT in liver sections and cholangiocytes from the selected groups of animals; and (ii) the effectiveness of the AANAT Vivo-Morpholino in lowering the expression of AANAT in cholangiocytes was determined. […] Data were expressed as relative mRNA levels ±SEM of the selected gene to glyceraldehyde-3-phosphate dehydrogenase (GAPDH) ratio. […]

CCA lines = test: Proliferation by MTS assay in CCA lines and H69; type: cell-based, human; conditions: melatonin 10-7 to 10-11 M, 24-72 hours
Description: Methods: Melatonin immunoreactivity, the expression of melatonin biosynthesis enzymes and receptors were assessed by immunohistochemistry in tissue arrays from normal and CCA patients, and by qPCR and immunoblots in intra-hepatic and extra-hepatic CCA cell lines, and a normal cholangiocyte line (H69). Proliferation was evaluated in vitro by MTS assay in CCA lines and H69 after treatment with melatonin (10-7 to 10-11 M, 24-72 hours). In parallel, the expression of CLOCK after melatonin treatment (10-11 M for 48 hours) was assessed in CCA lines and normal cholangiocytes by qPCR.

miR-141 = test: miRNA microarray expression profiling in BDL rat liver; conditions: reduced in BDL; after melatonin treatment in vivo
Description: Background: microRNAs (miRNAs) are small non-coding RNAs that have been implicated in the pathology of cholestatic liver injuries. After bile duct ligation (BDL), there is enhanced biliary proliferation and intrahepatic bile duct mass (IBDM). The inventors have previously shown that: i) cholangiocytes produce melatonin and express Clock genes and that ii) melatonin inhibits in vitro and in vivo the growth of cholangiocytes and cholangiocarcinoma cell lines by modulation of the CLOCK genes. Thus, in certain aspects miRNA regulates the expression of CLOCK genes and subsequently alters the proliferation of cholangiocytes after BDL. Methods: miRNA expression in normal and BDL rat liver was evaluated using hybridization based microRNA microarray. Mouse cholangiocytes (NMCs) were used for the experiments in vitro. mRNA expression was quantitated by real-time PCR analysis and protein expression was detected by Western blot. Results: […] Bioinformatics and dual-luciferase reporter assays identified Clock and cryptochrome 1 (Cry1), a blue light-dependent regulator of the circadian feedback loop, as the direct targets of miR-141. […] Targeting of […] during cholestatic liver injuries provides an important therapeutic strategy in the regulation of cholangiocytes proliferation through the regulation of Clock and Cry 1 expression.

[2] = normal rats, 1 mg/Kg BW/day 1 week vs. controls

Row | Molecule | Expression of MT1 and MT2 in cholangiocytes ([1]; BDL rats treated in vivo vs. regular tap water) | Expression of PER1, BMAL1, CRY1 and CLOCK in cholangiocytes ([1]; normal and BDL rats treated in vivo vs. control cholangiocytes) | Expression of AANAT in bile ducts (AANAT; BDL rats treated with melatonin (20 mg/L in tap water) 1 week) | Decrease in CCA growth compared to normal cholangiocytes (CCA lines) [%] | miR-141 expression in BDL rat liver (miR-141) | AANAT biliary expression (AANAT; [2]) | AANAT mRNA levels in pineal gland and small intestine (AANAT; [2])
1 | COc1ccc2[nH]cc(CCNC(C)=O)c2c1 [melatonin] | decreased | decreased | increased | 65 | recovered |  | 
2 | AANAT Vivo-Morpholino: Vivo-Morpholino sequence of AANAT 5′-GTTCCCCAGCTTTGGAAGTGGTCCC (SEQ ID NO:1), to reduce the biliary expression of AANAT (all phosphorodiamidate morpholino (PMO); Vivo-Morpholino delivery moiety attached, position not given here, further chemistry not fully specified) |  |  |  |  |  | reduced | increased
